Columns and labels:
common ragweed = assay: Test C pre-/postemergence herbicide test; type: in vivo, Ambrosia elatior; set-up: key to Plant response rating, Ragweed: 0 = no effect, 100 = complete control; settings: for Plant response rating, Ragweed: preemergence
Outline: (§1)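 Seeds were planted and sprayed preemergence with test chemicals in a non-phytotoxic solvent mixture containing surfactant; postemergence treatments went onto plants 2 to 18 cm tall (1- to 4-leaf stage). After 12 to 14 days in a greenhouse, injury was rated visually against untreated controls on a 0–100 scale.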

kochia = assay: Test C pre-/postemergence herbicide test; type: in vivo, Kochia scoparia; settings: for Plant response rating, Kochia: preemergence
Outline: as §1

pigweed = assay: Test B pre-/postemergence herbicide test; type: in vivo, Amaranthus retroflexus
Outline: (§2)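 Plants compared with untreated controls 13–15 days post-treatment and given a visual 0–100 injury score. Applications: preemergence to seeds; postemergence at 1- to 4-leaf (2–18 cm); paddy species flooded, 2-leaf stage. Vehicle non-phytotoxic, surfactant included.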

Surinam grass = assay: Test C pre-/postemergence herbicide test; type: in vivo, Urochloa decumbens; settings: for Plant response rating, Surinam Grass: preemergence
Outline: as §1

[1] = tested on: smallflower umbrella sedge; assay: Test C flooded paddy test; type: in vivo, Cyperus difformis; settings: for Plant response rating, Sedge, Umbrella: 500 g ai/ha, visual rating after 12 to 14 days
giant foxtail = assay: Test B pre-/postemergence herbicide test; type: in vivo, Setaria faberi
Outline: as §2

goosegrass = assay: Test C pre-/postemergence herbicide test; type: in vivo, Eleusine indica; settings: for Plant response rating, Goosegrass: preemergence
Outline: as §1

lambsquarters = assay: Test C pre-/postemergence herbicide test; type: in vivo, Chenopodium album; settings: for Plant response rating, Lambsquarters: preemergence
Outline: as §1

large crabgrass = assay: Test C pre-/postemergence herbicide test; type: in vivo, Digitaria sanguinalis; settings: for Plant response rating, Crabgrass, Large: preemergence
Outline: as §1

[2] = 125 g ai/ha, scale 0 (no effect) to 100 (complete control), visual, 12 to 14 days
[3] = Preemergence, 500 g ai/ha, scale 0 to 100, 0 no effect, 100 complete control
[4] = 125 g ai/ha; 0 = no effect, 100 = complete control; preemergence
[5] = 500 g ai/ha; visual rating 0-100, 0 no effect, 100 complete control; preemergence
[6] = postemergence, 125 g ai/ha; visual rating, scale 0 (no effect) to 100 (complete control)
[7] = postemergence, 500 g ai/ha; visual rating, scale 0 (no effect) to 100 (complete control)
[8] = 125 g ai/ha, scale 0 to 100 (0 no effect, 100 complete control)
[9] = 250 g ai/ha, scale of 0 to 100, 0 is no effect, 100 is complete control
[10] = scale 0 to 100 (0 no effect, 100 complete control)
[11] = 500 g ai/ha, scale 0 to 100 (0 no effect, 100 complete control), visual, 12 to 14 days
[12] = 125 g ai/ha; visual rating, scale 0 (no effect) to 100 (complete control); postemergence
[13] = 500 g ai/ha; visual rating, 0 = no effect, 100 = complete control; preemergence
[14] = postemergence, 500 g ai/ha; scale 0 to 100, 0 is no effect, 100 is complete control

| Structure (SMILES) | Plant response rating, Ragweed (common ragweed; 62 g ai/ha, scale 0 to 100) | Plant response rating, Ragweed (common ragweed; 250 g ai/ha, scale 0-100) | Plant response rating, Kochia (kochia; 62 g ai/ha, scale 0 to 100) | Plant response rating, Kochia (kochia; [2]) | Plant response rating, Kochia (kochia; 250 g ai/ha, scale 0-100) | Pigweed plant response rating (0 to 100 scale) (pigweed; [4]) | Plant response rating, Surinam Grass (Surinam grass; 62 g ai/ha, scale 0 to 100) | Plant response rating, Surinam Grass (Surinam grass; 250 g ai/ha, scale 0-100) | Sedge, Umbrella plant response rating [1, 8] | Sedge, Umbrella plant response rating [1, 9] | Plant response rating, Sedge, Umbrella [1, 10] | Foxtail, Giant plant response rating (0 to 100 scale) (giant foxtail; [4]) | Plant response rating, Goosegrass (goosegrass; 62 g ai/ha, scale 0 to 100) | Plant response rating, Goosegrass (goosegrass; [2]) | Plant response rating, Goosegrass (goosegrass; 250 g ai/ha, scale 0-100) | Plant response rating, Lambsquarters (lambsquarters; 62 g ai/ha, scale 0 to 100) | Plant response rating, Lambsquarters (lambsquarters; [2]) | Plant response rating, Lambsquarters (lambsquarters; 250 g ai/ha, scale 0-100) | Plant response rating, Crabgrass, Large (large crabgrass; 62 g ai/ha, scale 0 to 100) | Plant response rating, Crabgrass, Large (large crabgrass; [2]) | also measured |
| --- | --- | --- | --- | --- | --- | --- | --- | --- | --- | --- | --- | --- | --- | --- | --- | --- | --- | --- | --- | --- | --- |
| CCNC(=O)c1ccc(F)c(NC(=O)c2cn(C(C)(C)C)nc2CC)c1 [Compound 193] | 0 | 100 | 85 | 85 | 100 | 100 | 50 | 95 | 75 | 80 | 85 | 100 | 60 | 80 | 80 | 50 | 100 | 100 | 40 | 85 | Plant response rating, Ragweed (common ragweed; [2]): 100; Ragweed plant response rating (common ragweed; [3]): 100; Kochia plant response rating (kochia; [3]): 100; Plant response rating, Pigweed (pigweed; [5]): 100; Pigweed plant response rating (pigweed; [6]): 20; Pigweed plant response rating (pigweed; [7]): 60; Plant response rating, Surinam Grass (Surinam grass; [2]): 80; Surinam Grass plant response rating (Surinam grass; [3]): 100; Sedge, Umbrella plant response rating ([1]; 62 g ai/ha, scale 0 to 100 (0 no effect, 100 complete control)): 75; Plant response rating, Foxtail, Giant (giant foxtail; [5]): 100; Foxtail, Giant plant response rating (giant foxtail; [6]): 10; Foxtail, Giant plant response rating (giant foxtail; [7]): 20; Goosegrass plant response rating (goosegrass; [3]): 95; Lambsquarters plant response rating (lambsquarters; [3]): 100; Plant response rating, Crabgrass, Large (large crabgrass; 250 g ai/ha, scale 0-100): 85; Crabgrass, Large plant response rating (large crabgrass; [3]): 100 |
| CCn1nc(C2(C)CC2)cc1C(=O)Nc1cc(C(=O)N2CC=CC2)ccc1F [Compound 301] | 10 | 65 | 100 | 100 | 100 | 100 | 0 | 80 | 90 | 90 | 95 | 70 | 50 | 90 | 100 | 100 | 100 | 100 | 90 | 100 | Plant response rating, Ragweed (common ragweed; [11]): 70; Plant response rating, Kochia (kochia; [11]): 100; Pigweed plant response rating (pigweed; [12]): 80; Plant response rating, Pigweed (pigweed; [13]): 100; Pigweed plant response rating (pigweed; [14]): 90; Plant response rating, Surinam Grass (Surinam grass; [11]): 90; Sedge, Umbrella plant response rating ([1]; 62 g ai/ha, scale 0 to 100): 80; Foxtail, Giant plant response rating (giant foxtail; [12]): 10; Plant response rating, Foxtail, Giant (giant foxtail; [13]): 90; Foxtail, Giant plant response rating (giant foxtail; [14]): 20; Plant response rating, Goosegrass (goosegrass; [11]): 100; Plant response rating, Lambsquarters (lambsquarters; [11]): 100; Plant response rating, Crabgrass, Large (large crabgrass; 250 g ai/ha, scale 0-100): 100; Plant response rating, Crabgrass, Large (large crabgrass; [11]): 100 |

Reference: US20060069132A1, “Azolecarboxamide herbicides” (priority 2004, published 2006)
